# From patent US12403130B2, “Pharmaceutical combinations for treating cancer” (Purdue Pharmaceutical Products L.P., priority 2014, dated 2025)
# Like-named read-outs stand apart in the source and are kept apart here.
# Assays:
# [1] = system: U251MG glioblastoma cell line; experiment: IC50 against glioblastoma cell line U251MG; assay type: cell-based
# [2] = system: U87G glioblastoma cell line; experiment: IC50 against glioblastoma cell line U87G; assay type: cell-based
# [3] = system: T98G glioblastoma cell line; experiment: IC50 against glioblastoma cell line T98G; assay type: cell-based
# [4] = system: T98G, U251MG and U87MG glioblastoma cell lines; experiment: Radiotherapy and EDO-S101 against glioblastoma cell lines in vitro, surviving fraction; assay type: cell-based; details: radiotherapy in combination with EDO-S101 (5 μM or 10 μM) compared to radiotherapy alone
# Method: FIG. 15 is a plot of % surviving fraction of in vitro T98G, U251MG and U87MG glioblastoma cell lines against dose of radiotherapy (Gy) in combination with two different concentrations of the compound of formula I (EDO-S101) against a control with radiotherapy alone.
# [5] = system: U251MG mouse xenograft model; experiment: U251MG subcutaneously inoculated xenograft, time to progression; assay type: in vivo
# Method: (§1) Subcutaneously Inoculated Xenografts
# (§2) • Vehicle (control) • Radiotherapy (2Gy/5 consecutive days) • Temozolamide (16 mg/Kg for 5 consecutive days, po) • Temozolamide+radiotherapy • EDO-S101 (60 mg/Kg at day 1, 8 and 15 every 28 days, iv) • EDO-S101+radiotherapy
# [6] = system: U87MG mouse xenograft model; experiment: U87MG subcutaneously inoculated xenograft, time to progression; assay type: in vivo
# Method: as §1, §2
# [7] = system: Vk12653 transplant model of relapsed/refractory multiple myeloma; experiment: Vk12653 transplant model of relapsed/refractory multiple myeloma; assay type: in vivo; details: very aggressive, multi-drug resistant model
# [8] = system: multiple myeloma cell lines; details: WO-A-2010/085377; in vitro; cited from earlier work
# Vk*MYC multiple myeloma = experiment: Vk*MYC mouse model of multiple myeloma; assay type: in vivo; details: mice receiving only two doses, one week apart
# Source text: A genetic rearrangement of the MYC locus, resulting in dysregulated expression of MYC, is the most common mutation in human multiple myeloma. The genetically engineered Vk*MYC mouse model is based on dysregulation of MYC, and has been extensively validated as a clinically and biologically faithful model of untreated multiple myeloma. Nine drugs or classes of drugs (DNA alkylators, glucocorticoids, proteasome inhibitors, IMiDs, nab-paclitaxel, histone deacetylase inhibitors, TACI-Ig, perifosine and SNS-032, a CDK2, 7, 9 inhibitor) have been previously reported with more than a 20% partial response rate in Vk*MYC MM. Among those, the first five also have greater than 20% PR in patients with multiple myeloma for a positive predictive value of 56%.
# [9] = combination with radiotherapy (2Gy/5 consecutive days), temozolamide 16 mg/Kg 5 consecutive days po, EDO-S101 60 mg/Kg day 1, 8, 15 iv
# [10] = drug alone, EDO-S101 60 mg/Kg at day 1, 8 and 15 every 28 days, iv
# [11] = unit not given for temozolamide
Structure (SMILES),IC50 [1],IC50 [2],IC50 [3],% survival rate for the glioblastoma cells (FIG. 15) [4],"time to progression of the tumours [5, 9]","time to progression of the tumours [5, 10]","time to progression of the tumours [6, 9]","time to progression of the tumours [6, 10]",single agent activity [7],"IC50 ([1]; Homo sapiens, U-251)",activity relative to the activity shown by bendamustin [8],IC50 ([3]; Homo sapiens),duration of response (Vk*MYC multiple myeloma),rate of response (Vk*MYC multiple myeloma),"time to progression of the tumours ([5]; mouse, in vivo)","time to progression of the tumours ([6]; mouse, in vivo)","IC50 [1, 11]","IC50 [2, 11]","IC50 [3, 11]"
Cn1c(CCCC(=O)O)nc2cc(N(CCCl)CCCl)ccc21 [bendamustin],30 µM,50 µM,52 µM,–,–,–,–,–,–,–,–,–,–,–,–,–,–,–,–
Cn1c(CCCCCCC(=O)NO)nc2cc(N(CCCl)CCCl)ccc21 [EDO-S101],–,1.36 µM,–,considerably reduced,over 50 days,over 50 days,over 50 days,40 days,single agent activity,6.6 µM,35-100 ×,7.7 µM,more than three months,high rate of response,–,–,–,–,–
Cn1nnc2c(C(N)=O)ncn2c1=O [temozolamide],–,–,–,–,–,–,–,–,–,–,–,–,–,–,42 days,35 days,20 µM,20 µM,> 100 µM
